According to ChEMBL document CHEMBL3608291, “Chemical constituents of Miliusa balansae leaves and inhibition of nitric oxide production in lipopolysaccharide-induced RAW 264.7 cells” (Bioorg Med Chem Lett, 2015):
Activity calls are given as the source filed them. The rule behind the calls is not given here.

Legend:
[1] = tested on: RAW264.7; assay: Anti-inflammatory activity in LPS-stimulated mouse RAW264.7 cells assessed as inhibition of nitric oxide production at 10 uM by Griess reaction based ELISA method; format: functional, cell-based
[2] = tested on: RAW264.7; assay: Cytotoxicity against mouse RAW264.7 cells assessed as reduction in cell viability at 10 to 40 uM by MTT assay; format: cell-based; conditions: raw264.7, 40 µM
[3] = tested on: RAW264.7; assay: Anti-inflammatory activity in LPS-stimulated mouse RAW264.7 cells assessed as inhibition of nitric oxide production at 40 uM by Griess reaction based ELISA method; format: functional
[4] = tested on: RAW264.7; assay: Anti-inflammatory activity in LPS-stimulated mouse RAW264.7 cells assessed as inhibition of nitric oxide production at 20 uM by Griess reaction based ELISA method; format: functional
[5] = tested on: RAW264.7; assay: Anti-inflammatory activity in LPS-stimulated mouse RAW264.7 cells assessed as inhibition of nitric oxide production at 10 to 40 uM by Griess reaction based ELISA method; format: functional

`C[C@H](CC[C@H]1[C@H](C)C[C@H](O)CC1(C)C)O[C@@H]1O[C@H](CO)[C@@H](O)[C@H](O)[C@H]1O` was tested, and the inhibition [1] was “Active”, the Activity [2] was “Non-toxic” and the inhibition at 40 µM [3] was 82%. For the same molecule, the inhibition [4] was “Active”.
For `CC1=C2C[C@@H]3[C@@](C)(C[C@]2(O)OC1=O)[C@H](O)CC[C@@]3(C)O` [CHLORAEUDOLIDE], the inhibition [1] was “inactive”, the Activity [2] was “Non-toxic” and the inhibition [3] was “inactive”. For the same molecule, the inhibition [4] was “inactive”.
In the case of `CC(=O)/C=C/[C@@]12O[C@@H](CC1(C)C)C[C@@]2(C)O[C@@H]1O[C@H](CO)[C@@H](O)[C@H](O)[C@H]1O`, the Activity [2] is reported as “Non-toxic” and the inhibition at 20 µM [4] is reported as 84.8%.
`C[C@@H]1O[C@@H](OC[C@H]2O[C@@H](Oc3c(-c4ccc(O)c(O)c4)oc4cc(O)cc(O)c4c3=O)[C@H](O)[C@@H](O)[C@@H]2O)[C@H](O)[C@H](O)[C@H]1O` [RUTIN] was tested, and the inhibition [1] was “inactive”, the Activity [2] was “Non-toxic” and the inhibition [3] was “inactive”. The inhibition [4] was “inactive”.
For `COc1cc(-c2oc3cc(OC)c(O)c(O)c3c(=O)c2OC)ccc1O` [CHRYSOSPLENOL C], the inhibition [1] was “inactive”, the Activity [2] was “Non-toxic” and the inhibition [3] was “inactive”. The inhibition [4] was “inactive”.
For `COc1cc([C@H](O)[C@@H](O)CO)cc(OC)c1O` (relative stereo), the inhibition [1] was “inactive”, the Activity [2] was “Non-toxic” and the inhibition [3] was “inactive”. The inhibition [4] was “inactive”.
With `C[C@H](/C=C/[C@@]1(O)[C@H](C)CC(=O)CC1(C)C)O[C@@H]1O[C@H](CO)[C@@H](O)[C@H](O)[C@H]1O` the inhibition [1] was “inactive”, the Activity [2] was “Non-toxic” and the inhibition [3] was “inactive”. For the same molecule, the inhibition [4] was “inactive”.
In the case of `CC(=O)/C=C/[C@@]12O[C@@H](C[C@]1(C)O[C@@H]1O[C@H](CO)[C@@H](O)[C@H](O)[C@H]1O)[C@H](O)C2(C)C`, the Activity [2] is reported as “Non-toxic” and the inhibition at 20 µM [4] is reported as 98.5%.
In the case of `CC(=O)/C=C/[C@@]12O[C@@H](C[C@]1(C)O[C@@H]1O[C@H](CO[C@@H]3OC[C@](O)(CO)[C@H]3O)[C@@H](O)[C@H](O)[C@H]1O)[C@H](O)C2(C)C`, the Activity [2] is reported as “Non-toxic” and the inhibition at 20 µM [4] is reported as 90.9%.
`CC/C=C\CCO[C@@H]1O[C@H](CO)[C@@H](O)[C@H](O)[C@H]1O` was tested, and the Activity [2] was “Non-toxic” and the inhibition at 20 µM [4] was 91.8%.
In the case of `Oc1cc(O)c2c(c1)O[C@H](c1ccc(O)c(O)c1)[C@H](O)C2` [(-)-EPICATECHIN], the inhibition [1] is reported as “Active”, the Activity [2] is reported as “Non-toxic” and the inhibition at 40 µM [3] is reported as 91.8%. The inhibition [4] was “Active”.
In the case of `O=C1/C(=C/c2ccc(O)c(O)c2)Oc2cc(O)ccc21` [SULFURETIN], the inhibition at 20 µM [4] is reported as 81.3%.
In the case of `CC1=C2C[C@@H]3[C@@](C)(C[C@]2(O)OC1=O)[C@H](O)CC[C@]3(C)O`, the inhibition [1] is reported as “inactive”, the Activity [2] is reported as “Non-toxic” and the inhibition [3] is reported as “inactive”. For the same molecule, the inhibition [4] was “inactive”.
In the case of `C[C@H](CC[C@H]1[C@H](C)CC(=O)CC1(C)C)O[C@@H]1O[C@H](CO)[C@@H](O)[C@H](O)[C@H]1O`, the inhibition [1] is reported as “inactive”, the Activity [2] is reported as “Non-toxic” and the inhibition [3] is reported as “inactive”. The inhibition [4] was “inactive”.
In the case of `COc1cc([C@H](O)[C@H](CO)O[C@@H]2O[C@H](CO)[C@@H](O)[C@H](O)[C@H]2O)ccc1O`, the “inhibition (INH)” value [5] is reported as 98%, the Activity [2] is reported as “Non-toxic” and the inhibition at 20 µM [4] is reported as 91.5%.
`CC(C)CC(=O)c1c(O)cc(O)cc1O[C@@H]1O[C@H](CO)[C@@H](O)[C@H](O)[C@H]1O` was tested, and the inhibition [1] was “inactive”, the Activity [2] was “Non-toxic” and the inhibition [3] was “inactive”. For the same molecule, the inhibition [4] was “inactive”.
`COc1cc([C@H](O)[C@@H](O)CO)ccc1O` (relative stereo) was tested, and the “inhibition (INH)” value [5] was 48.4%, the inhibition [1] was “inactive” and the Activity [2] was “Non-toxic”. The inhibition [3] was “inactive” and the inhibition [4] was “inactive”.
With `COc1cc([C@H](O)[C@H](O)CO)ccc1O` (relative stereo) the “inhibition (INH)” value [5] was 48.4%, the inhibition [1] was “inactive” and the Activity [2] was “Non-toxic”. For the same molecule, the inhibition [3] was “inactive” and the inhibition [4] was “inactive”.
With `COc1cc([C@H](O)[C@H](O)CO)cc(OC)c1O` (relative stereo) the inhibition [1] was “inactive”, the Activity [2] was “Non-toxic” and the inhibition [3] was “inactive”. The inhibition [4] was “inactive”.
